Measured values taken from patent US4824863A, “Antibiotic A80438” (Eli Lilly and Company, priority 1985, dated 1989).
Residues, ends and D or L forms follow the SMILES beside them.

Key:
[1] = test system: A80438 (Streptomyces bobili NRRL 15971); test: Streptomycin inhibition (taxonomic comparison); conditions: culture A80438
[2] = test system: S. bobili; conditions: published descriptions; cited from earlier work
[3] = test system: Culture A80438 (Streptomyces bobili NRRL 15971); test: Antibiotic sensitivity discs on seeded ISP No. 2 agar plates; conditions: sensitivity disc
[4] = test system: Culture A80438 (Streptomyces bobili NRRL 15971); test: Resistance to lysozyme; assay type: cell-based
Experimental: Resistance to lysozyme was measured by methods recommended by Gordon and Barnett [R. E. Gordon and D. A. Barnett, "Resistance to Rifampin and Lysozyme of Strains of Some Species of Mycobacterium and Nocardia as a Taxonomic Tool", Int. J. Syst. Bacteriol. 27, 176-178 (1977)].

[5] = test system: coccidiosis; conditions: alone; Science 122, 244 (1955); cited from earlier work

Molecule: [H]/N=C(/N)N[C@H]1[C@H](O)[C@@H](O)[C@H](O[C@@H]2O[C@@H](C)[C@](O)(C=O)[C@H]2O[C@@H]2O[C@@H](CO)[C@H](O)[C@@H](O)[C@@H]2NC)[C@@H](N/C(N)=N\[H])[C@@H]1O [streptomycin]
- Streptomycin inhibition [1]: +
- Streptomycin inhibition [2]: +
- Resistance/sensitivity of culture A80438 ([3]; 10 μg): sensitive

Molecule: CO[C@H]1/C=C/O[C@@]2(C)Oc3c(C)c(O)c4c(O)c(c(/C=N/N5CCN(C)CC5)c(O)c4c3C2=O)NC(=O)/C(C)=C\C=C\[C@H](C)[C@H](O)[C@@H](C)[C@@H](O)[C@@H](C)[C@H](OC(C)=O)[C@@H]1C [rifampin]
- Resistance/sensitivity of culture A80438 ([3]; 5 μg): sensitive

Molecule: lysozyme
- Resistance/sensitivity of culture A80438 to lysozyme [4]: sensitive

Molecule: gentamicin
- Resistance/sensitivity of culture A80438 ([3]; 10 μg): sensitive

Molecule: neomycin
- Resistance/sensitivity of culture A80438 ([3]; 30 μg): sensitive

Molecule: O=C(Nc1ccc([N+](=O)[O-])cc1)Nc1ccc([N+](=O)[O-])cc1 [4,4'-dinitrocarbanilide]
- Anticoccidial activity [5]: exhibits anticoccidial activity

Molecule: CO[C@H]1C[C@H](O[C@H]2[C@H](C)[C@@H](O[C@@H]3O[C@H](C)C[C@H](N(C)C)[C@H]3O)[C@@H](C)C[C@@]3(CO3)C(=O)[C@H](C)[C@@H](O)[C@@H](C)[C@@H](C)OC(=O)[C@@H]2C)O[C@@H](C)[C@@H]1O [oleandomycin]
- Resistance/sensitivity of culture A80438 ([3]; 15 units): sensitive

Molecule: CC(=O)OCC1=C(C(=O)O)N2C(=O)[C@@H](NC(=O)Cc3cccs3)[C@H]2SC1 [cephalothin]
- Resistance/sensitivity of culture A80438 ([3]; 30 μg): resistant

Molecule: NC[C@H]1O[C@H](O[C@H]2[C@H](O)[C@@H](O[C@H]3O[C@H](CO)[C@@H](O)[C@H](N)[C@H]3O)[C@H](N)C[C@@H]2N)[C@H](N)C[C@@H]1O [tobramycin]
- Resistance/sensitivity of culture A80438 ([3]; 10 μg): sensitive

Molecule: CCC[C@@H]1C[C@@H](C(=O)N[C@@H]([C@H]2O[C@H](SC)[C@H](O)[C@@H](O)[C@H]2O)[C@@H](C)O)N(C)C1 [lincomycin]
- Resistance/sensitivity of culture A80438 ([3]; 2 μg): resistant

Molecule: CN[C@H](CC(C)C)C(=O)N[C@H]1C(=O)N[C@@H](CC(N)=O)C(=O)N[C@H]2C(=O)N[C@H]3C(=O)N[C@H](C(=O)N[C@H](C(=O)O)c4cc(O)cc(O)c4-c4cc3ccc4O)[C@H](O)c3ccc(c(Cl)c3)Oc3cc2cc(c3O[C@@H]2O[C@H](CO)[C@@H](O)[C@H](O)[C@H]2O[C@H]2C[C@](C)(N)[C@H](O)[C@H](C)O2)Oc2ccc(cc2Cl)[C@H]1O [vancomycin]
- Resistance/sensitivity of culture A80438 ([3]; 30 μg): sensitive

Molecule: CC1(C)S[C@@H]2[C@H](NC(=O)Cc3ccccc3)C(=O)N2[C@H]1C(=O)O [penicillin G]
- Resistance/sensitivity of culture A80438 ([3]; 10 units): resistant

Molecule: CN(C)C1C(=O)C(C(N)=O)=C(O)C2(O)C(=O)C3=C(O)c4c(O)cccc4C(C)(O)C3CC12 (stereo not shown) [tetracycline]
- Resistance/sensitivity of culture A80438 ([3]; 30 μg): sensitive

Molecule: CC[C@H](C)[C@H](N)C1=N[C@H](C(=O)N[C@@H](CC(C)C)C(=O)N[C@H](CCC(=O)O)C(=O)N[C@H](C(=O)N[C@H]2CCCCNC(=O)[C@H](CC(N)=O)NC(=O)[C@@H](CC(=O)O)NC(=O)[C@H](Cc3cnc[nH]3)NC(=O)[C@@H](Cc3ccccc3)NC(=O)[C@H]([C@@H](C)CC)NC(=O)[C@@H](CCCN)NC2=O)[C@@H](C)CC)CS1 [bacitracin] (HELM PEPTIDE1{[CC[C@H](C)[C@H](N)C1=N[C@H](C(=O)[*:2])CS1].L.[dE].I.K.[NCCC[C@@H](N[*:1])C(=O)[*:2]].I.[dF].H.[dD].N}$PEPTIDE1,PEPTIDE1,5:R3-11:R2$$$V2.0)
- Resistance/sensitivity of culture A80438 ([3]; 10 units): sensitive
